Numbering of substitutions follows the chain as printed.
Key:
Format in all cases: binding
[1] = target: T1, MVt (metavinculin tail domain) (Homo sapiens, UniProt P18206); experiment: high-speed lipid cosedimentation with LUVs, protein titration; settings: protein titrated at fixed 10% PIP2 in PE/PC/PS/PIP2 LUVs; Kd in protein concentration; 40 mM Hepes, 150 mM NaCl, pH 7.4, room temperature; read-out: Protein concentration (μM) / app Kd
T1 construct: gene VCL; tail domain residues 879-1134; N-terminal His-tag removed by TEV; 2HR-T vector; E. coli BL21(DE3)
T1 sequence (P18206 879-1134): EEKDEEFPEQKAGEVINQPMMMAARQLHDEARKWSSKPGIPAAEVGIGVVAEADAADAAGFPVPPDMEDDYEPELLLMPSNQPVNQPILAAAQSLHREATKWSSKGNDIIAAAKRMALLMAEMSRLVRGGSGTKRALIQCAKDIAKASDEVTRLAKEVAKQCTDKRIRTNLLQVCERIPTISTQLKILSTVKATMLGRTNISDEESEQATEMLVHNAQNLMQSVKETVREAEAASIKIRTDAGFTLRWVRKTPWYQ
Source text: high-speed lipid cosedimentation with LUVs, protein titration on MVt (metavinculin tail domain)

[2] = target: T2, Vt (vinculin tail domain) (Gallus gallus, UniProt P12003); experiment: as above; settings: protein titrated at fixed 10% PIP2 in PE/PC/PS/PIP2 LUVs; Kd in protein concentration; 40 mM Hepes, 150 mM NaCl, pH 7.4, room temperature; read-out: Protein concentration (μM) / app Kd
T2 construct: gene VCL; tail domain residues 879-1066; N-terminal His-tag removed by TEV; pQlinkH; E. coli BL21(DE3)
T2 sequence (P12003 879-1066 isoform P12003-1): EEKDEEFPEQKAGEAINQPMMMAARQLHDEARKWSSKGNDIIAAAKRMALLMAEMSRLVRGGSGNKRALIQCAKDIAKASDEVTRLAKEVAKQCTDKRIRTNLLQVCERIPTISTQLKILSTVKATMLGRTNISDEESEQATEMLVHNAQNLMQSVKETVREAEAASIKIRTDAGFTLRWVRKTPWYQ
Source text: high-speed lipid cosedimentation with LUVs, protein titration on Vt (vinculin tail domain)

[3] = target: T2, Vt (vinculin tail domain); experiment: high-speed lipid cosedimentation with LUVs, PIP2 gradient; settings: 10 μM protein, PE/PC/PS LUVs with 0-30 mol% PIP2; one-site fit; pH 7.4, room temperature; the table also has a μM column, which looks inconsistent with the lipid amount
Source text: high-speed lipid cosedimentation with LUVs, PIP2 gradient on Vt (vinculin tail domain)

[4] = target: T1, MVt (metavinculin tail domain); experiment: as above; settings: 10 μM protein, PE/PC/PS LUVs with 0-30 mol% PIP2; one-site fit; pH 7.4, room temperature; the table also has a μM column, which looks inconsistent with the lipid amount
Source text: (§1) high-speed lipid cosedimentation with LUVs, PIP2 gradient on MVt (metavinculin tail domain)

[5] = target: T3, MVt (metavinculin tail domain) (Homo sapiens, UniProt P18206, A934V); experiment: as above; settings: 10 μM protein, PE/PC/PS LUVs with 0-30 mol% PIP2; one-site fit; pH 7.4, room temperature; the table also has a μM column, which looks inconsistent with the lipid amount
T3 construct: gene VCL; tail domain residues 879-1134; N-terminal His-tag removed by TEV; 2HR-T vector; E. coli BL21(DE3)
T3 sequence (P18206 879-1134 A934V): T1 sequence (P18206 879-1134) with A56V
Source text: as §1

- Kd [1]: 4.66 ± 1.62 µM
- Kd [2]: 4.94 ± 1.56 µM
- PIP2 (%) / app Kd [3]: 8.89 ± 1.25 % PIP2 (mol%) in liposomes
- PIP2 (%) / app Kd [4]: 9.20 ± 1.80 % PIP2 (mol%) in liposomes
- PIP2 (%) / app Kd [5]: 9.94 ± 2.52 % PIP2 (mol%) in liposomes
Substance: L-α-phosphatidylinositol-4,5-bisphosphate [PIP2]

Source: article PMC12180986, “Molecular basis for differential PIP2-mediated association between vinculin and its splice isoform metavinculin” (The Journal of Biological Chemistry, 2025)
